Assay [1] has as its target T1, 3-beta-hydroxysteroid-Delta(8),Delta(7)-isomerase (Cavia porcellus, UniProt Q60490).
T1 sequence (Q60490 whole entry): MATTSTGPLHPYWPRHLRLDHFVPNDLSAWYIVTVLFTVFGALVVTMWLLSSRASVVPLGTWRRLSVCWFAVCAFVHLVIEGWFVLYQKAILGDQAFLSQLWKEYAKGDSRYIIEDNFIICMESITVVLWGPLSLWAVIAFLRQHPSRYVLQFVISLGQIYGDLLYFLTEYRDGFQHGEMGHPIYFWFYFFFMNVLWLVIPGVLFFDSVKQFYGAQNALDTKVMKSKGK
Briefly: Inhibition of [3H]-emopamil binding to Sterol delta 8-delta 7 isomerase in guinea pig liver membrane. It is filed as cell membranes.

Another assay has as its target Sigma 2 receptor. Briefly: Inhibition of [3H]DTG binding to Sigma receptor type 2 in rat liver membrane. The class given is cell membranes.
The species named for the next assay is Cavia porcellus. Kind of assay: Relative affinity for sterol delta-(8)-delta-(7) isomerase over sigma-1 receptor.
The target in assay [2] is Sigma non-opioid intracellular receptor 1 (Homo sapiens) (UniProt Q99720). Kind of assay: Relative affinity for sigma-2 over sigma-1 receptors.

Structures are written as SMILES.

Chain of Sigma non-opioid intracellular receptor 1 (Homo sapiens) (Q99720 whole entry): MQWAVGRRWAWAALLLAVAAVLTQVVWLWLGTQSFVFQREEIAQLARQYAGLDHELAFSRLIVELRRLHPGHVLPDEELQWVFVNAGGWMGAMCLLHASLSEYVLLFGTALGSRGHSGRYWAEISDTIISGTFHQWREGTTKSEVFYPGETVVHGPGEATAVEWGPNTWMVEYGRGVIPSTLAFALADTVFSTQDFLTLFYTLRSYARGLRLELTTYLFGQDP

As for `CC1CCN(CC[C@@H](C)Oc2ccc(Cl)cc2)CC1`, the inhibitory constant (Ki) (in general, a dissociation constant, usually derived from enzyme kinetics or from competition with a known ligand) in assay [1] came out at 30.1 nM; at Sigma 2 receptor it was 13.9 nM.

Take `CC1CCN([C@H](C)CCOc2ccc(Cl)cc2)CC1`: the Ki was 7.79 nM in assay [1] and 15.1 nM on Sigma 2 receptor.

Turning to `CC(C(O)c1ccc(O)cc1)N1CCC(Cc2ccccc2)CC1` (racemic) [IFENPRODIL], the Ki in assay [1] turned out to be 2.71 nM. This counts as single-digit nanomolar.

With `CC1CCN(CCCOc2ccc(Cl)cc2)CC1`, the Ki is 9.65 nM in assay [1] and 38.6 nM on Sigma 2 receptor.

Consider `CC1CCN([C@H](C)COc2ccc(Cl)cc2)CC1`, for which the Ki is 27.5 nM in assay [1] and 52.3 nM on Sigma 2 receptor. Moreover, the figures for the Ratio (in the assay filed under Cavia porcellus; in assay [2]) were 23 and 44, respectively.

In the case of `CC1CCN(CCOc2ccc(Cl)cc2)CC1`, the inhibition constant Ki is 3.7 nM in assay [1] and 239 nM at Sigma 2 receptor.

As for `CC1CCN([C@@H](C)CCOc2ccc(Cl)cc2)CC1`, the Ki came out at 37 nM in assay [1] and 31.6 nM at Sigma 2 receptor.

Take `CC1CCN(C[C@@H](C)Oc2ccc(Cl)cc2)CC1`: the Ki in assay [1] was 3.38 nM; on Sigma 2 receptor, 318 nM.

Take `CC1CCN(C[C@@H](C)COc2ccc(Cl)cc2)CC1`: the inhibition constant Ki in assay [1] stood at 18.7 nM; at Sigma 2 receptor, 62 nM. Further, the Ratio in the assay filed under Cavia porcellus worked out at 11; in assay [2], 36.

For `CC1CCN(C[C@H](C)COc2ccc(Cl)cc2)CC1`, the inhibition constant Ki in assay [1] turned out to be 14.5 nM; at Sigma 2 receptor, 40.8 nM. Also, the values for the Ratio (in the assay listed under Cavia porcellus; in assay [2]) were 13 and 37, respectively.

Consider `C(/C=C/c1ccc2c(c1)OCO2)=C\CN1CCCCC1`, for which the Ki at Sigma 2 receptor stood at 554 nM. That is a sub-micromolar value.

As to `CC1CCN(CC[C@H](C)Oc2ccc(Cl)cc2)CC1`, the Ki stood at 12 nM in assay [1] and 65.9 nM at Sigma 2 receptor.

On to `CC1CCN(C[C@H](C)Oc2ccc(Cl)cc2)CC1`, for which the figures for the Ki (in assay [1]; on Sigma 2 receptor) were 35.1 nM and 332 nM, respectively.

`CC1CCN([C@@H](C)COc2ccc(Cl)cc2)CC1`: the Ki amounted to 3.73 nM in assay [1] and 186 nM at Sigma 2 receptor. Also, the Ratio turned out to be 11 in the assay listed under Cavia porcellus and 547 in assay [2].

Source of the values: ChEMBL document CHEMBL1136792, “Synthesis of chiral 1-[omega-(4-chlorophenoxy)alkyl]-4-methylpiperidines and their biological evaluation at sigma1, sigma2, and sterol delta8-delta7 isomerase sites” (J Med Chem, 2003).
